# Reference: BindingDB's records for doi:10.1016/j.bmcl.2008.12.062 (Bristol-Myers Squibb, 2009)
# Assay: Antagonist activity at CCR2 in human PBMCs assessed as inhibition of MCP1-induced chemotaxis
row,IC50 [nM],Structure (SMILES)
1,13.5,CSc1ccc(C(=O)NC2CC(N)CCC2NC(=O)CNC(=O)c2cc(C(F)(F)F)ccc2N)cc1 (racemic) [(+/-)-2-amino-N-(2-(4-amino-2-(4-(methylthio)benzamido)cyclohexylamino)-2-oxoethyl)-5-(trifluoromethyl)benzamide]
2,17.4,CC(=O)Nc1ccc(CNC2CC(N(C)C)CCC2NC(=O)CNC(=O)c2cccc(C(F)(F)F)c2)cc1 (racemic) [(+/-)-N-(2-(2-(4-acetamidobenzylamino)-4-(dimethylamino)cyclohexylamino)-2-oxoethyl)-3-(trifluoromethyl)benzamide]
3,41.4,COc1ccc(CNC2CC(N(C)C)CCC2NC(=O)CNC(=O)c2cccc(C(F)(F)F)c2)cc1 (racemic) [(+/-)-N-(2-(4-(dimethylamino)-2-(4-methoxybenzylamino)cyclohexylamino)-2-oxoethyl)-3-(trifluoromethyl)benzamide]

# Further lines, the compound ahead of its results:
row,Structure (SMILES),IC50 [nM]
1,CSc1ccc(C(=O)NC2CC(NC(=O)OCc3ccccc3)CCC2NC(=O)CNC(=O)c2cccc(C(F)(F)F)c2)cc1 (racemic) [(+/-)-benzyl3-(4-(methylthio)benzamido)-4-(2-(3-(trifluoromethyl)benzamido)acetamido)cyclohexylcarbamate],5.1
2,CN(C)C1CCC(NC(=O)CNC(=O)c2cccc(C(F)(F)F)c2)C(NCc2ccc3[nH]ccc3c2)C1 (racemic) [(+/-)-N-(2-(2-((1H-indol-5-yl)methylamino)-4-(dimethylamino)cyclohexylamino)-2-oxoethyl)-3-(trifluoromethyl)benzamide],23
3,Cc1ccc(CNC2CC(N(C)C)CCC2NC(=O)CNC(=O)c2cccc(C(F)(F)F)c2)cc1 (racemic) [(+/-)-N-(2-(4-(dimethylamino)-2-(4-methylbenzylamino)cyclohexylamino)-2-oxoethyl)-3-(trifluoromethyl)benzamide],12.6
4,CSc1ccc(CNC2CC(N(C)C)CCC2NC(=O)CNC(=O)c2cccc(C(F)(F)F)c2)cc1 (racemic) [(+/-)-N-(2-(4-(dimethylamino)-2-(4-(methylthio)benzylamino)cyclohexylamino)-2-oxoethyl)-3-(trifluoromethyl)benzamide],22.5
